According to US9725752B2, “Resonator and process for performing biological assay” (THE UNITED STATES OF AMERICA, AS REPRESENTED BY THE …, priority 2015, dated 2017):

Columns and labels:
Type in all cases: cell-based
[1] = tested on: Escherichia coli (E. coli) cells; test: Phase noise of piezoelectric resonator with adhered microbes exposed to antibiotic; conditions: for time frame in which the resonator method detects antimicrobial action against live E. coli cells: preliminary experiments; for PSDs of the acoustic resonators when the antibiotic was introduced: spectral power 4 Hz to 20 Hz, FIG. 35, FIG. 36
Method: An acoustic article was prepared to detect microbial viability through measurements of phase noise of a resonator on which microbes were adhered. An acoustic article was prepared by combining a piezoelectric resonator (commercially available from Biolin Scientific, model Q-Sense) and custom fabricated components that interfaced to the piezoelectric resonator. The piezoelectric resonator included an electrical contact to a piezoelectric crystal. […] One side of the piezoelectric crystal faced a fluid chamber and was coated with a thin layer of poly-L-lysine (PLL) to promote adhesion of microbes to the surface. The piezoelectric resonator was disposed on an aluminum platform that incorporated electrical lines to the resonator, and the platform was placed on a thermally controlled platform held at a constant temperature of approximately 37° C. Phosphate-buffered saline (PBS) was introduced to the fluid chamber, and electronics configured according to FIG. 30 and FIG. 31 were used to determine the resonant frequency of the resonator by varying the output frequency from frequency source 200 while monitoring the amplitude of the RF output from amplifier 222. The output frequency of the CW voltage from the frequency source was then set to this measured resonant frequency. Subsequently, averaged power spectral densities of phase noise from the resonator were determined from the measured time-varying voltage from phase-noise detector 106 passed to vector signal analyzer 206, through the use of a calibration of phase-noise detector 106. Following acquisition of this background spectrum, Escherichia coli (E. coli) cells were suspended in PBS and flowed through the fluid chamber over the crystal for five minutes. The chamber was then drained of fluid and refilled with Luria-Bertani (LB) broth to provide nutrients for bacterial growth. E. coli adhered to the crystal surface during this sequence, and unattached cells were washed away.
Power spectral densities (PSDs) were repeatedly acquired over a period beginning 30 minutes before ampicillin in LB was introduced to the crystal and ending 68 minutes after this introduction of ampicillin. Before the acquisition of each averaged spectrum, the output of frequency source 200 was retuned to the current frequency of the resonator while monitoring the output of amplifier 222. […] The background PSD in PBS has been subtracted from these spectra.
To provide a scalar quantity reflective of the measured PSDs, the spectra in FIG. 33 and similar spectra at other times during the experiment were integrated over the frequency range from 3 Hz to 20 Hz. This quantity, which is the total spectral power over this frequency range, is plotted in FIG. 34 as a function of time.
Simultaneous control measurements of PSDs were also acquired on a second piezoelectric crystal with the same sequence of introduction of fluids, except that the effector fluid contained no ampicillin. With this control crystal, PSDs increased continuously during the entire experiment.
The acoustic article, electronic circuitry, data acquisition procedures, and fluid-analyte processing steps described in Example 1 were used to probe the effect of an antibiotic, polymyxin B, on phase noise generated by E. coli Here, two identical resonators (“Crystal A” and “Crystal B”) were used in which Crystal B was not exposed to polymyxin B until more than 40 minutes after introduction of polymyxin B to Crystal A.
Measurements of PSDs of the first resonator (Crystal A) before and after exposure of E. coli to polymyxin B are shown in FIG. 35. […] Data from second resonator Crystal B with E. coli not exposed to polymyxin B during 0-40 minutes are shown in FIG. 36 and labelled as “Crystal B,” wherein data labelled as “Crystal A” are data taken in presence of polymyxin B during 0-40 minutes and later.

[2] = tested on: Escherichia coli (E. coli) cells; test: Optical microscope images of cell density on the crystal
[3] = tested on: Escherichia coli (E. coli) cells; test: Plating of cells collected from the crystal for enumeration of colony-forming units (CFUs); conditions: LB-agar plates, growth at least 24 hours; for number of CFUs relative to a parallel sample not exposed to antibiotic: cells collected from crystal
Source text: To confirm the action of the antibiotic on E. coli viability, cells were collected from the surface of the crystal and plated after serial dilution onto LB-agar plates for enumeration of colony-forming units (CFUs).
To confirm the action of the antibiotic on E. coli viability, cells were collected from the surface of the resonators (Crystal A and Crystal B) and plated after serial dilution onto LB-agar plates for enumeration of colony-forming units (CFUs).

| Compound | time frame in which the resonator method detects antimicrobial action against live E. coli cells [1] | PSDs of the acoustic resonators when the antibiotic was introduced [1] | disintegration of E. coli cells [2] | CFUs recovered from treated resonators ([3]; FIG. 37) | number of CFUs relative to a parallel sample not exposed to antibiotic [3] | spectral power of phase noise soon after introduction of antibiotic ([1]; PSD integrated 3 Hz to 20 Hz, E. coli on PLL-coated crystal in LB, approx. 37° C., FIG. 34) | time after introduction of antibiotic at which spectral power began dropping towards the background level ([1]; PSD integrated 3 Hz to 20 Hz, FIG. 34) | cell density after introduction of antibiotic ([2]; period beginning 30 min after introduction of ampicillin, FIG. 34) |
| --- | --- | --- | --- | --- | --- | --- | --- | --- |
| polymyxin B | within a one-hour time frame | dropped dramatically | does not induce a disintegration | no CFUs were recovered | greater than several log decrease | – | – | – |
| CC1(C)S[C@@H]2[C@H](NC(=O)[C@H](N)c3ccccc3)C(=O)N2[C@H]1C(=O)O [ampicillin] | within a one-hour time frame | dropped dramatically | – | – | several log decrease | essentially leveled off | approximately 30 minutes | dropped as a result of lysing and disintegration of cells |
